Assay results as given in the NIST ThermoML archive (doi:10.1021/acs.jced.7b00489).
± gives the expanded uncertainty stated by the source.

Settings: Crystal; DSC

For O=C(c1cc(Cc2n[nH]c(=O)c3ccccc23)ccc1F)N1CCN(C(=O)C2CC2)CC1 [olaparib], which Triple point temperature is on record?
Its Triple point temperature is 471.65 ± 1.8 K.
